Measurements from US6191124A, “Methanol derivatives for treatment of retroviral infections especially HIV infections” (priority 1997, dated 2001).
Where two headings read alike, the source gives them in different places. Values belong to the compound of their own block, whether it stands above or below them.

Target: HIV-1 protease (Human immunodeficiency virus type 1 group M subtype B, UniProt P04585)
Experiment: HIV protease screening assay (fluorescently labeled biotinylated substrate, streptavidin beads), percent inhibition
Assay type: biochemical
Description: The HIV protease screening assay is based on fluorescently labeled substrate which can be resolved from nonlabeled cleavage product using special beads coated with streptavidin. The substrate is biotinylated at the amino terminal arginine and fluorescently labeled with fluorescein isothiocynate (FITC) at the carboxyl terminal lysine. This assay has been employed to detect novel, nonpeptidic inhibitors of HIV-1 protease. Substrate (20 μl of 0.2 μM), sample (10 μl of desired concentration), and enzyme (10 μl of 0.1 μM) are added to a 96 well pandex plate. The assay is run in 0.1 M sodium acetate buffer at pH 5.5 in the presence of 1.0 M sodium chloride and 0.05% NP-40 with incubated in the dark for one hour at room temperature. Strepavidin coated polystyrene beads {40 μl of 0.1% (w/v)} are added and the plate is incubated in the dark for an additional half hour. The labeled cleavage product is separated from the unreacted substrate via filtration and is read on the Idexx screen machine. The data are analyzed by appropriate computer algorithms to ascertain percent inhibition values.

[1] = 1.1 μM (Table 6), read-out: PROTEASE INHIBITION
[2] = 3.3 μM (Table 6), read-out: PROTEASE INHIBITION
[3] = 3.3 μM (Table 9), read-out: PROTEASE INHIBITION
[4] = 10 μM (Table 9), read-out: PROTEASE INHIBITION
[5] = 10 μM (Table 3), read-out: % Protease Inhibition
[6] = 1.1 μM (Table 7), read-out: PROTEASE INHIBITION
[7] = 3.3 μM (Table 7), read-out: PROTEASE INHIBITION
[8] = 10 μM (Table 7), read-out: PROTEASE INHIBITION
[9] = 1.1 μM (Table 8), read-out: PROTEASE INHIBITION
[10] = 3.3 μM (Table 8), read-out: PROTEASE INHIBITION
[11] = 10 μM (Table 8), read-out: PROTEASE INHIBITION
[12] = 10 μM (Table 2), read-out: % Protease Inhibition
[13] = 3.3 μM (Table 5), read-out: % HIV Protease Inhibition
[14] = 10 μM (Table 5), read-out: % HIV Protease Inhibition
[15] = 10 μM (Table 1), read-out: % Protease Inhibition

inhibition at 1.1 µM [1]: 64%
inhibition at 3.3 µM [2]: 88%
SMILES: OC(CCc1cc(F)cc(F)c1)c1cnc2sc3c(n12)CCCCC3 (stereo not drawn) [Example 28, α-[2-(3,5-Difluorophenyl)ethyl]-1-6,7,8,9-tetrahydro-5H-cyclohept[d]-imidazothiazol-3-methanol]

inhibition at 3.3 µM [3]: 19%
inhibition at 10 µM [4]: 81%
SMILES: Cc1sc2ncc(C(O)/C=C/c3ccco3)n2c1C (stereo not drawn) [Example 41, α-[2-(2-Furanyl)ethenyl]2,3-dimethylimidazo[2,1-b]thiazol-3-methanol]

inhibition at 1.1 µM [1]: 51%
inhibition at 3.3 µM [2]: 80%
SMILES: OC(CCc1ccc2ccccc2c1)c1cnc2sc3c(n12)CCCCC3 (stereo not drawn) [Example 37, α-[2-(2-Naphthalenyl)ethyl]-6,7,8,9-tetrahydro-5H-cyclohept[d]imidazo[2,1-b]thiazol-3-methanol]

inhibition at 1.1 µM [6]: 23%
inhibition at 3.3 µM [7]: 33%
inhibition at 10 µM [8]: 21%
SMILES: OC(/C=C/c1ccc(F)cc1)c1cnc2sc3c(n12)CCCCC3 (stereo not drawn) [Example 25, α-[2-(4-Fluorophenyl)ethenyl]-6,7,8,9-tetrahydro-5H-cyclohept[d]imidazo[2,1-b]thiazol-3-methanol]

inhibition at 1.1 µM [9]: < 10%
inhibition at 3.3 µM [10]: 52%
inhibition at 10 µM [11]: 97%
SMILES: Cc1ccc(S(=O)(=O)Nc2ccccc2CCC(O)c2cnc3sc(C)c(C)n23)cc1 (centres unmarked) [Example 33]

inhibition at 1.1 µM [1]: 58%
inhibition at 3.3 µM [2]: 99%
SMILES: OC(CCc1cccc(F)c1F)c1cnc2sc3c(n12)CCCCC3 (stereo not drawn) [Example 34, α-[2-(2,3-Difluorophenyl)ethyl]-6,7,8,9-tetrahydro-5H-cyclohept[d]imidazothiazol-3-methanol]

inhibition at 1.1 µM [6]: 15%
inhibition at 3.3 µM [7]: 52%
inhibition at 10 µM [8]: 42%
SMILES: COc1ccc(/C=C/C(O)c2cnc3sc4c(n23)CCCCC4)cc1 (stereo not drawn) [Example 36, α-[2-(4-Methoxyphenyl)ethenyl]-6,7,8,9-tetrahydro-5H-cyclohept-[d]imidazo[2,1-b]thiazol-3-methanol]

inhibition at 1.1 µM [1]: 24%
inhibition at 3.3 µM [2]: 70%
SMILES: CN(C)c1ccc(CCC(O)c2cnc3sc4c(n23)CCCCC4)cc1 (centres unmarked) [Example 29]

inhibition at 1.1 µM [1]: 54%
inhibition at 3.3 µM [2]: 85%
SMILES: OC(CCc1ccco1)c1cnc2sc3c(n12)CCCCC3 (stereo not drawn) [Example 39, α-[2-(2-Furanyl)ethyl]-6,7,8,9-tetrahydro-5H-cyclohept[d]imidazo[2,1-b]thiazol-3-methanol]

inhibition at 1.1 µM [6]: 12%
inhibition at 3.3 µM [7]: 60%
inhibition at 10 µM [8]: 98%
SMILES: OC(/C=C/c1ccco1)c1cnc2sc3c(n12)CCCCC3 (stereo not drawn) [Example 38, α-[2-(2-Furanyl)ethenyl]-6,7,8,9-tetrahydro-5H-cyclohept[d]imidazo[2,1-b]thiazol-3-methanol]

inhibition at 3.3 µM [7]: < 10%
inhibition at 10 µM [8]: 24%
SMILES: CN(C)c1ccc(/C=C/C(O)c2cnc3sc4c(n23)CCCCC4)cc1 (stereo not drawn) [Example 30, α-[2-(4-Dimethylaminophenyl)ethenyl]-6,7,8,9-tetrahydro-5H-cyclohept[d]-imidazo[2,1-b]thiazol-3-methanol]

inhibition at 1.1 µM [1]: 63%
inhibition at 3.3 µM [2]: 81%
SMILES: COc1ccc(CCC(O)c2cnc3sc4c(n23)CCCCC4)cc1 (stereo not drawn) [Example 35, α-[2-(4-methoxyphenyl)ethyl]-6,7,8,9-tetrahydro-5H-cyclohept-[d]imidazo[2,1-b]thiazol-3-methanol]

inhibition at 1.1 µM [9]: < 10%
inhibition at 3.3 µM [10]: 46%
inhibition at 10 µM [11]: 92%
SMILES: Cc1sc2ncc(C(O)CCc3ccco3)n2c1C (centres unmarked) [Example 42]

inhibition at 1.1 µM [1]: 53%
inhibition at 3.3 µM [2]: 77%
SMILES: OC(CCc1ccc(F)cc1)c1cnc2sc3c(n12)CCCCC3 (stereo not drawn) [Example 24, α-[2-(4-Fluorophenyl)ethyl]-6,7,8,9-tetrahydro-5H-cyclohept[d]imidazo[2,1-b]thiazol-3-methanol]

inhibition at 3.3 µM [3]: < 10%
inhibition at 10 µM [4]: 15%
SMILES: Cc1ccc(S(=O)(=O)Nc2cccc(/C=C/C(O)c3cnc4sc(C)c(C)n34)c2)cc1 (centres unmarked) [Example 32]

inhibition at 1.1 µM [9]: 15%
inhibition at 3.3 µM [10]: 68%
inhibition at 10 µM [11]: 98%
SMILES: Cc1ccc(S(=O)(=O)Nc2cccc(CCC(O)c3cnc4sc(C)c(C)n34)c2)cc1 (centres unmarked) [Example 31]

inhibition at 1.1 µM [1]: 4.8%
inhibition at 3.3 µM [2]: 80%
SMILES: OC(CCc1cccc(Br)c1)c1cnc2sc3c(n12)CCCCC3 (stereo not drawn) [Example 26, α-[2-(3-Bromophenyl)ethyl]-6,7,8,9-tetrahydro-5H-cyclohept[d]imidazo-[2,1-b]thiazol-3-methanol]

inhibition at 1.1 µM [1]: 55%
inhibition at 3.3 µM [2]: 98%
SMILES: OC(CCc1cccc(Cl)c1)c1cnc2sc3c(n12)CCCCC3 (stereo not drawn) [Example 27, α-[2-(3-Chlorophenyl)ethyl]-6,7,8,9-tetrahydro-5H-cyclohept[d]imidazo[2,1-b]thiazol-3-methanol]

Continued, compound first:

SMILES: Cc1csc2ncc(C(C)(O)/C=C/c3ccccc3)n12 (stereo not drawn) [Example 5, α,3-Dimethyl-α-(E-2-phenyl-E-ethenyl)imidazo[2,1-b]thiazole-5-methanol]
inhibition at 10 µM [5]: < 10%
inhibition at 30 µM (30 μM (Table 3 footnote)): 48.9%
% Protease Inhibition (1-1.2 μM (Table 3)): < 10%
% Protease Inhibition (3.3-3.7 μM (Table 3)): < 10%

SMILES: Cc1csc2ncc(C(O)CCc3ccc(Br)cc3)n12 (stereo not drawn) [Example 9, 3-Methyl-α-(4-bromophenylethyl)imidazo[2,1-b]thiazole-5-methanol]
inhibition at 10 µM [12]: 83%
% Protease Inhibition (1.1-1.3 μM (Table 2)): < 10%
% Protease Inhibition (3.3-3.7 μM (Table 2)): 22%

SMILES: Cc1ccc2c(c1)sc1ncc(C(O)CCc3ccccc3)n12 (stereo not drawn) [Example 19, 7-Methyl-α-(2-phenylethyl)imidazo[2,1-b]benzothiazole-3-methanol]
inhibition at 3.3 µM [13]: 59%
inhibition at 10 µM [14]: 92%

SMILES: Cc1csc2ncc(C(C)(O)CCc3ccccc3)n12 (stereo not drawn) [Example 7, α,3-Dimethyl-α-(2-phenylethyl)imidazo[2,1-b]thiazole-5-methanol]
inhibition at 10 µM [5]: 14.5%
% Protease Inhibition (1-1.2 μM (Table 3)): < 10%
% Protease Inhibition (3.3-3.7 μM (Table 3)): < 10%

SMILES: Cc1sc2ncc(C(O)C#Cc3ccccc3)n2c1C (stereo not drawn) [Example 1, 2,3-Dimethyl-α-(2-phenylethynyl)imidazo-[2,1-b]thiazole-5-methanol]
inhibition at 10 µM [15]: 16%
% Protease Inhibition (3.3-3.7 μM (Table 1)): < 10%

SMILES: OC(/C=C/c1cccc(F)c1)c1cnc2sc3c(n12)CCCCC3 (stereo not drawn) [Example 22, α-[2-(3-Fluorophenyl)ethenyl]-6,7,8,9-tetrahydro-5H-imidazo[2,1-b]thiazole-3-methanol]
inhibition at 1.1 µM [6]: 24%
inhibition at 3.3 µM [7]: 57%
inhibition at 10 µM [8]: 66%

SMILES: OC(CCc1ccccc1)c1cnc2sc3ccccc3n12 (stereo not drawn) [Example 18, α-(2-phenylethyl)-imidazo[2,1-b]benzothiazole-3-methanol]
inhibition at 3.3 µM [13]: 28%
inhibition at 10 µM [14]: 94%

SMILES: Cc1csc2ncc(C(O)CCCCc3ccccc3)n12 (stereo not drawn) [Example 10, 3-Methyl-α-(4-phenylbutyl)imidazo-[2,1-b]thiazole-5-methanol]
inhibition at 10 µM [12]: 58%
% Protease Inhibition (1.1-1.3 μM (Table 2)): < 10%
% Protease Inhibition (3.3-3.7 μM (Table 2)): 12%

SMILES: OC(CCc1ccccc1)c1cnc2sc3c(n12)CCC3 (stereo not drawn) [Example 13, 6,7-Dihydro-α-(2-phenylethyl)-5H-cyclopent[d]imidazo[2,1-b]thiazole-3-methanol]
inhibition at 1.1 µM (1.1 μM (Table 4), read-out: Protease Inhibition, % Inhibition): 39%

SMILES: OC(CCc1ccccc1)c1cnc2sc3cc(F)ccc3n12 (stereo not drawn) [Example 20, 7-Fluoro-α-(2-phenylethyl)imidazo[2,1-b]benzothiazole-3-methanol]
inhibition at 3.3 µM [13]: 43%
inhibition at 10 µM [14]: 88%

SMILES: Cc1csc2ncc(C(O)CCc3ccccc3)n12 (stereo not drawn) [Example 8, 3-Methyl-α-(2-phenylethyl)imidazo[2,1-b]thiazole-5-methanol]
inhibition at 10 µM [12]: 79%
% Protease Inhibition (1.1-1.3 μM (Table 2)): < 10%
% Protease Inhibition (3.3-3.7 μM (Table 2)): 32%

SMILES: COc1ccc2c(c1)sc1ncc(C(O)CCc3ccccc3)n12 (stereo not drawn) [Example 21, 7-Methoxy-α-(2-phenylethyl)imidazo[2,1-b]benzothiazole-3-methanol]
inhibition at 3.3 µM [13]: 80%
inhibition at 10 µM [14]: 93%

SMILES: Cc1csc2ncc(C(O)CC(C)c3ccccc3)n12 (stereo not drawn) [Example 6, 3-Methyl-α-(2-phenylpropyl)imidazo[2,1-b]thiazole-5-methanol]
inhibition at 10 µM [12]: 51%
% Protease Inhibition (1.1-1.3 μM (Table 2)): < 10%
% Protease Inhibition (3.3-3.7 μM (Table 2)): < 10%

SMILES: Cc1sc2ncc(C(O)Cc3ccccc3)n2c1C (stereo not drawn) [Example 2, 2,3-Dimethyl-α-(2-phenylmethyl)imidazo-[2,1-b]thiazole-5-methanol]
inhibition at 10 µM [15]: 86%
% Protease Inhibition (1.1-1.3 μM (Table 1)): < 10%
% Protease Inhibition (3.3-3.7 μM (Table 1)): 27%

SMILES: OC(CCc1cccc(F)c1)c1cnc2sc3c(n12)CCCCC3 (stereo not drawn) [Example 23, α-[2-(3-Fluorophenyl)ethyl]-6,7,8,9-tetrahydro-5H-cyclohept[d]imidazo[2,1-b]thiazol-3-methanol]
inhibition at 1.1 µM [1]: 35%
inhibition at 3.3 µM [2]: 64%
